Measurements published in US6855346B2, “Pharmaceutical composition having prophylactic effects on lamivudine-related disease relapse and drug resistance and methods of using the same” (priority 2001, dated 2005).
Marks after values point to notes of the source that are not given here.

How the values were obtained:
Type in all cases: in vivo, human
[1] = tested on: Chronic Hepatitis B (HBV); experiment: Clinical study of YGK and lamivudine in chronic hepatitis B patients: serum biological markers (Example 6)
Experimental: Patients were randomized and divided into group A, B and C. Group A was the treatment group with 48 patients while group B with 42 patients and group C with 45 patients were positive control groups.
(§1) (2) Treatment Method • Each treatment period lasted for 4 weeks.
(§2) (1) Observe Items • (a) Hepatitis B biological markers: Serum HBV-DNA, HBeAg, Anti-Hbe, HbsAg, Anti-HBs were analyzed before treatment, at week 4, 8, 16 and 32 during treatment and at week 24 and 48 after treatment termination. • Serum HBV-DNA was measured by polymerase chain reaction (PCR) using 9600 DNA Amplification Machine (PE corp., USA) and reagents from E-li-kang Biotech. Corp., Zhejiang, Wenzhou, China. Serum HBeAg, anti-HBe, HBsAg, and Anti-HBs were determined by the Imx method using Automatic Quick Micro Immune Analytic Instrument and reagents from Abbott Laboratories, USA. • (b) Hepatic functions: ALT was monitored at week 4, 8, 16 and 32 during treatment and at week 24 and 48 after treatment termination. • (c) Adverse effects: Patients were constantly monitored by the medical staff for adverse effect throughout the treatment periods.
Data obtained at weeks 4, 8, 16, and 32 during treatment and at weeks 24 and 48 after treatment termination were analyzed by Chi-square (X^2) and t-test. The statistical results obtained were used to evaluate the therapeutic effects.

ALT = experiment: Clinical study of YGK and lamivudine in chronic hepatitis B patients: hepatic function (ALT)
Experimental: (§3) A total of 135 patients who met the criteria were included in this study. Patients were randomized and divided into group A, B and C. Group A was the treatment group with 48 patients while group B with 42 patients and group C with 45 patients were positive control groups.
as §1, §2
Data obtained at weeks 4, 8, 16, and 32 during treatment and at weeks 24 and 48 after treatment termination were analyzed by Chi-square (X^2) and t-test. […]

[2] = Clinical study of YGK and lamivudine in chronic hepatitis B patients: adverse effects; conditions: after 16 weeks of treatment, of 42 patients; disappeared after 2 more weeks
Experimental: as §3, §1, §2

[3] = number of patients after 4 weeks of treatment
[4] = number of patients after 8 weeks of treatment
[5] = number of patients after 16 weeks of treatment
[6] = number of patients after 32 weeks of treatment
[7] = number of patients at week 24 after treatment termination
[8] = number of patients at week 48 after treatment termination

With `Nc1ccn([C@@H]2CS[C@H](CO)O2)c(=O)n1` [lamivudine, (2R, cis)-4-amino-1-(2-hydroxmethyl-1,3-oxathiolan-5-yl)-(1H)-pyrimidin-2-one] the HBeAg seroconversion ([1]; after 16 weeks of treatment) was 4.8%, the “patients with negative HBV DNA” value ([1]; after 16 weeks of treatment) was 61.9% and the “HBV DNA negative conversion” value ([1]; after 32 weeks of treatment) was 90.5%. For the same compound, the HBeAg seroconversion ([1]; after 32 weeks of treatment) was 9.5%, the “rate for patients turning negative in HBeAg” value ([1]; after lamivudine treatment) was 9.5% and the “Seroconversion of HBeAg” value [1, 3] was 0**. For the same compound, the “Seroconversion of HBsAg” value [1, 3] was 0, the “Seroconversion of anti-Hbe” value [1, 3] was 0** and the “Seroconversion of Anti-HBs” value [1, 4] was 0. The “Seroconversion of HBeAg” value [1, 4] was 0**, the “Seroconversion of HBsAg” value [1, 4] was 0** and the “Seroconversion of anti-HBe” value [1, 4] was 0**. For the same compound, the “Seroconversion of Anti-HBs” value [1, 5] was 0, the “Seroconversion of HBeAg” value [1, 5] was 2** and the “Seroconversion of HBsAg” value [1, 5] was 0**. The “Seroconversion of anti-HBe” value [1, 5] was 0**, the “Seroconversion of Anti-HBs” value [1, 6] was 1 and the “Seroconversion of HBeAg” value [1, 6] was 4**. For the same compound, the “Seroconversion of HBsAg” value [1, 6] was 1**, the “Seroconversion of anti-HBe” value [1, 6] was 4** and the “Seroconversion of Anti-HBs 24W” value [1, 7] was 1**. The “Seroconversion of HBeAg 24W” value [1, 7] was 4**, the “Seroconversion of HBsAg 24W” value [1, 7] was 1** and the “Seroconversion of anti-HBe 24W” value [1, 7] was 4**. For the same compound, the “Seroconversion of Anti-HBs 48W” value [1, 8] was 0**, the “Seroconversion of HBeAg 48W” value [1, 8] was 0** and the “Seroconversion of HBsAg 48W” value [1, 8] was 0**. The “Seroconversion of anti-HBe 48W” value [1, 8] was 0**, the “patients relapsed to positive for HBV DNA” value ([1]; of the 38 patients HBV DNA negative during treatment, week 48 after treatment termination) was 12 and the “overall HBV DNA seroconversion rate” value ([1]; week 48 after treatment termination) was 61.9%. The “patients with normal ALT” value (ALT; after 4 weeks of treatment) was 66.6%, the “patients with normal ALT” value (ALT; [3]) was 28** and the “patients showing adverse effects (anorexia, abdominal discomfort, fluctuating ALT levels)” value [2] was 8.
